Laboratory results as given in patent US5716956A, “Dihydrophthalazine antagonists of excitatory amino acid receptors” (Bearsden Bearsden Bio, Inc., priority 1996, dated 1998).
Like-named read-outs stand apart in the source and are kept apart here.

Legend:
AMPA receptor = AMPA receptor inhibition, whole-cell patch clamp, KA-stimulated currents in primary cultures of rat neocortex; format: cell-based; settings: rat cortical neurons; for AMPA % INHIBITION (10 μM drug): KA 50 μM; for IC50: 5 doses
Protocol: The potency of Examples 1-5, 7, 11, 17 and 31 listed in Table 1, for drug inhibition of the AMPA receptor was tested using the whole-cell patch clamp technique on primary cultures of rat neocortex. The general procedure for stimulating AMPA-receptor mediated currents with KA and for the measurement of current inhibition is based on that used by Donevan and Rogawski (Neuron, 10:51-59, 1993) for 2,3-benzodiazepines.
Standard extracellular bath solutions and intracellular pipette solutions are used as described in detail by Hussy and coworkers (J. Physiol. (Lond.), 481.2:311-323,1994). The drug application system is designed to allow rapid switching between 7 different reservoirs containing either control bath solution, kainic acid (50 μM), or kainic acid (50 μM) plus antagonist (10 μM). Each recording is begun with a control response to KA alone.
Following the establishment of a 2-3 sec duration steady baseline, bathing solution is switched to one containing KA plus antagonist for an additional 2-3 sec period. Alternatively, 5 different doses of a single compound are tested for the determination of the antagonist IC50. The results of the assay of Examples 1-5, 7, 11, 17 and 31 are listed below in Table 3, which illustrates AMPA receptor inhibition in rat cortical neurons. The compounds tested all were useful as antagonists of non-NMDA EAA receptors.

Male NIH Swiss mice = assay: Maximum Electro Shock (MES) Seizure Test; format: in vivo; settings: ip, 0.5 hours
Protocol: The extent of protection by a test compound in a seizure model is tested as described by Rogawski et al. (Epilepsy Research, 15:179-184, 1993). Male NIH Swiss mice (25-30 g) are injected ip with the test drug. The mice are subjected to a 0.2 sec, 60 Hz, 50 mA electrical stimulus delivered with corneal electrodes wetted with 0.9% saline at 15-30 min post dosing. Animals failing to show tonic hind limb extension are scored as protected. Compounds may be selected which are active in this model.

Mice = assay: Subcutaneous Metrazol (scMET) Seizure Test; format: in vivo; settings: 30 mg/kg, 0.5 hr, metrazol 90 mg/kg sc
Protocol: This test is to determine the extent of protection by a test compound in a seizure model. The method used is that of Chen et at. (Proc. Soc. Exp. Biol. Med., 87:334, 1954). Mice are randomly assigned to vehicle or treatment groups of 3-10 animals per group and then dosed accordingly. Metrazol (pentylenetetrazol) 90 mg/kg is administered subcutaneously (sc) at different time points (0.25, 0.5, 1, 2, 4 hr) after the treatment or control groups. The mice individually housed in clear runs and observed for the presence or absence of clonic seizure activity (>5 s duration) for 30 min after metrazol dosing. A compound is considered active if no seizure is observed. Data is analyzed using a quantal measure (protection/number tested).

cortical infarct volumes = settings: cited from earlier work
global ischemia = settings: rat common carotid arteries model; cited from earlier work

Row | IC50 (AMPA receptor) | SMILES | AMPA % INHIBITION (10 μM drug) (AMPA receptor) | also measured
1 | 23 µM | CNC(=O)N1N=C(c2ccc(N)cc2)c2cc3c(cc2C1C)OCO3 (stereo not drawn) [Example 1, 4-(4-Aminophenyl)-1,2-dihydro-1-methyl-2-(N"-methylcarbamoyl)-6,7-methylendioxyphthalazine] | 20% | –
2 | 7.2 µM | CCNC(=O)N1N=C(c2ccc(N)cc2)c2cc3c(cc2C1C)OCO3 (stereo not drawn) [Example 2, 4-(4-Aminophenyl)-1,2-dihydro-2-(N-ethylcarbamoyl)-1-methyl-6,7-methylendioxyphthalazine] | 55% | MES Score (protected/no. tested) (Male NIH Swiss mice; 30 mg/kg): 3/3
3 | 2.8 µM | CCCNC(=O)N1N=C(c2ccc(N)cc2)c2cc3c(cc2C1C)OCO3 (stereo not drawn) [Example 3, 4-(4-Aminophenyl)-1,2-dihydro-1-methyl-2-propylcarbamoyl-6,7-methylendioxyphthalazine] | 80% | MES Score (protected/no. tested) (Male NIH Swiss mice; 31 mg/kg): 5/8
4 | – | CC(C)NC(=O)N1N=C(c2ccc(N)cc2)c2cc3c(cc2C1C)OCO3 (stereo not drawn) [Example 4, 4-(4-Aminophenyl)-1,2-dihydro-1-methyl-2-isopropylcarbamoyl-6,7-methylendioxyphthalazine] | 45% | –
5 | 1.8 µM | CCCCNC(=O)N1N=C(c2ccc(N)cc2)c2cc3c(cc2C1C)OCO3 (stereo not drawn) [Example 5, 4-(4-Aminophenyl)-1,2-dihydro-1-methyl-2-n-butylcarbamoyl-6,7-methylenedioxyphthalazine] | 86% | –
6 | 5.4 µM | CC1c2cc3c(cc2C(c2ccc(N)cc2)=NN1C(=O)NC(C)(C)C)OCO3 (stereo not drawn) [Example 7] | 70% | –
7 | – | CCC1c2cc3c(cc2C(c2ccc(N)cc2)=NN1C(=O)NC)OCO3 (stereo not drawn) [Example 11, 4-(4-Aminophenyl)-1,2-dihydro-1-ethyl-2-methylcarbamoyl-6,7-methylendioxyphthalazine] | 36% | –
8 | – | CC(=O)N1N=C(c2ccc(N)cc2)c2cc3c(cc2C1C)OCO3 (stereo not drawn) [Example 17] | 20% | –
9 | – | CC1c2cc3c(cc2C(c2ccc(N)cc2)=NN1C(=O)N(C)C)OCO3 (stereo not drawn) [Example 31, 4-(4-Aminophenyl)-1,2-dihydro-2-(N,N-dimethylcarbamoyl)-1-methyl-6,7-methylendioxyphthalazine] | 33% | –
10 | – | CCCNC(=O)N1N=C(c2ccc(N)cc2)c2cc(OC)c(OC)cc2C1C (stereo not drawn) [Example 133] | – | MES Score (protected/no. tested) (Male NIH Swiss mice; 30 mg/kg): 1/3; scMET Score (protect./no. tested) (Mice): 1/5
11 | – | CC1=NN=C(c2ccc(N)cc2)c2cc3c(cc2C1)OCO3 [GYKI 52466] | – | reduction of cortical infarct volumes (cortical infarct volumes; delayed for one hour): 48%; reduction of cortical infarct volumes (cortical infarct volumes; given continuously for 2 hours just after occlusion): 68%; effectiveness in global ischemia compared with NBQX (global ischemia): as effective as the glutamate site competitive antagonist NBQX
